Assay results as given in patent US10995068B2, “Synthetic sphingolipid-like molecules, drugs, methods of their synthesis and methods of treatment” (The Regents of the University of California, priority 2015, dated 2021).

Key:
[1] = system: normal human peripheral blood mononuclear cells (PBMC); experiment: Colony formation assay, PBMC; type: cell-based
Description: (§1) The difference in sensitivity stems from the inability of neoplastic cells to adapt to decreases of metabolism.
(§2) Cell analysis: Viability and 4F2hc expression are determined by vital dye exclusion and flow cytometry. Oxygen consumption is measured with an XF24 Extracellular Flux Analyzer (Seahorse Bioscience); values are normalized to total protein. Confocal microscopy is performed on either a Zeiss LSM780 or a Nikon Eclipse Ti; vacuolation was monitored using a Nikon TE2000-S equipped with DIC filters. Anchorage-independent growth of SW620 cells is measured in DMEM-10 containing 0.35% agarose with a 0.5% agarose bottom layer. PBMNCs are obtained from the normal blood donor program run by the CTSA-supported Institute for Clinical and Translational Science at UCI under IRB protocols 2015-1883 (Edinger) and 2001-2058 (ICTS). […] Plates were incubated at 37° C. in a humidified atmosphere containing 5% CO2 and colonies were counted after 12 days.
(§3) Cell culture and reagents. […] Cell viability was measured by vital dye exclusion using either propidium iodide or DAPI at 1 μg/ml. Analysis of cell surface 4F2hc levels with PE-conjugated anti-CD98 was restricted to viable cells as determined by DAPI exclusion. Anchorage-independent growth of SW620 cells was measured in DMEM-10 containing 0.35% low melt agarose with a 0.5% agarose bottom layer. […]

colon cancer cells SW620 = experiment: Colony formation assay, SW620; type: cell-based, human; conditions: anchorage-independent growth, colonies counted after 12 days
Description: as §1, §2, §3

[2] = system: cellular oxygen consumption; experiment: Cellular oxygen consumption; type: cell-based; conditions: XF24 Extracellular Flux Analyzer
From the text: Cells treated with oligomycin or rotenone/antimycin A, as expected, compensated for the loss of oxidative phosphorylation by increasing glycolysis, reducing the bound NADH fraction (FIG. 51F). Conversely, the glycolysis inhibitor 2-DG and starvation increased oxidative phosphorylation and the bound to free NADH ratio. SH-BC-893 mimicked the effect of amino acid and glucose starvation, increasing the bound NADH fraction and cellular oxygen consumption (FIGS. 51F and 51G). Cells responded similarly to the anti-inflammatory drug FTY720. Thus, the metabolic changes triggered by SH-BC-893 parallel those seen in cells with restricted access to key metabolic substrates.
as §2, with “layer.” for “layer. PBMNCs are obtained from the normal blood donor program run by the CTSA-supported Institute for Clinical and Translational Science at UCI under IRB protocols 2015-1883 (Edinger) and 2001-2058 (ICTS).”

PIKfyve = biological target: T1, PIKfyve (Homo sapiens, UniProt Q9Y2I7); experiment: PIKfyve in vitro kinase assay; type: biochemical; conditions: FLAG-PIKfyve
T1 construct: made in house; host or cells: HEK293T cells
T1 sequence (Q9Y2I7 whole entry, species assumed): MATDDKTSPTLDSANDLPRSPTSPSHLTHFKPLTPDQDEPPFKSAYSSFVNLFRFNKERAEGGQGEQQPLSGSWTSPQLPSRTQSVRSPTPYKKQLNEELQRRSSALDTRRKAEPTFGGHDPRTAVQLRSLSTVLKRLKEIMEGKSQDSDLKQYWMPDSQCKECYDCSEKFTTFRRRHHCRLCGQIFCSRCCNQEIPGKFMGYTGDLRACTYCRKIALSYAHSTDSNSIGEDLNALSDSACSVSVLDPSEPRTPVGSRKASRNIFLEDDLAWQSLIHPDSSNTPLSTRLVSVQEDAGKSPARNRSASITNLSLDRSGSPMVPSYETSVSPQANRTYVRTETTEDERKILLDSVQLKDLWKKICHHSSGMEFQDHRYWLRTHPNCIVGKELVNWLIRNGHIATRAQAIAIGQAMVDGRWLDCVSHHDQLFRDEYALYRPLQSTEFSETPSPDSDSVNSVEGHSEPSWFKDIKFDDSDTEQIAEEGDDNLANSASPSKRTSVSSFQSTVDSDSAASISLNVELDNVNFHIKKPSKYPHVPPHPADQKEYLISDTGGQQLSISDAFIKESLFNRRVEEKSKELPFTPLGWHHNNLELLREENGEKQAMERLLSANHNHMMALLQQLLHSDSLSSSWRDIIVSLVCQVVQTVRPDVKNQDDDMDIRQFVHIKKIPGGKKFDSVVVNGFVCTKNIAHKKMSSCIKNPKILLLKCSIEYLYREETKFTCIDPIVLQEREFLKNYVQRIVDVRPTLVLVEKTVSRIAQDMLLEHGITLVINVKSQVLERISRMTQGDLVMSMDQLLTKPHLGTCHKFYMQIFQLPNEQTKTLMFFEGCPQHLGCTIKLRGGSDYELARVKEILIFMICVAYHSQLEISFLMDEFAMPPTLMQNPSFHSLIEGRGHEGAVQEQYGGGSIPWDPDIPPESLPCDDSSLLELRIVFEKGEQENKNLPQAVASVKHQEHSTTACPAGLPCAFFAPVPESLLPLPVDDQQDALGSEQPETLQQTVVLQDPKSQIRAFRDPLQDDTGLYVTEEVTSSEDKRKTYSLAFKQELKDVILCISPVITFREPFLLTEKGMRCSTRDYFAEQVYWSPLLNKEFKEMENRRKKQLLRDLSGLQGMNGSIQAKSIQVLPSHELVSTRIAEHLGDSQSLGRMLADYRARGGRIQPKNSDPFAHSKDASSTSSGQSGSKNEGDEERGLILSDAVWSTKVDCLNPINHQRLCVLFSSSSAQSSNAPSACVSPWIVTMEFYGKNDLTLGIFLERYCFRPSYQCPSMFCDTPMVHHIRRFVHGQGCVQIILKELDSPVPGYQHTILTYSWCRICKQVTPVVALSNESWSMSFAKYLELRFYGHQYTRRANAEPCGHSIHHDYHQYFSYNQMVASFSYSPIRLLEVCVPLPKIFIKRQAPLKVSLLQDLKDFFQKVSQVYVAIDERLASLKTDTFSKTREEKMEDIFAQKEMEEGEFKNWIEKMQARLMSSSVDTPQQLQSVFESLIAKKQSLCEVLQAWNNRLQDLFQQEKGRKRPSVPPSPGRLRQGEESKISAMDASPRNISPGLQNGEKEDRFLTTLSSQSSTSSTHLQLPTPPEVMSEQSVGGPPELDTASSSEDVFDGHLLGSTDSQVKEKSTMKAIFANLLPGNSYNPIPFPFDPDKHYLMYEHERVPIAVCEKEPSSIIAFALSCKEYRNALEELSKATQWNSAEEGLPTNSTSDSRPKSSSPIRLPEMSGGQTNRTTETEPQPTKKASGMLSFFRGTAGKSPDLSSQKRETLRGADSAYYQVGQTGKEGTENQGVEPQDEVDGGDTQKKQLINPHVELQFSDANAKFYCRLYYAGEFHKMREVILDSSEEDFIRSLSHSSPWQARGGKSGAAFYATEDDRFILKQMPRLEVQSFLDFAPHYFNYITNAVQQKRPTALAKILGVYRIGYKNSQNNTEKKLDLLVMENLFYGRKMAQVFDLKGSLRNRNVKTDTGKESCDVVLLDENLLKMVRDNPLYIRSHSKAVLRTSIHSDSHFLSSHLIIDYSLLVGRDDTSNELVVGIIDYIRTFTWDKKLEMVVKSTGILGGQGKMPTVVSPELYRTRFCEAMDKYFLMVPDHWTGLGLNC
From the text: In certain embodiments of the invention, sphingolipid-like molecules mis-localize PIKfyve preventing its association with TRMPL1 and inducing vacuolation, instead of inhibiting PIKfyve kinase activity. While PIKfyve localized to the limiting membrane of YM201636-induced vacuoles as expected, PIKfyve was present in clumps between vacuoles in FTY720-treated cells (FIGS. 57C and 56F).
PIKfyve in vitro kinase assay. FLAG-PIKfyve was expressed in HEK293T cells, purified with FLAG-beads, and eluted with FLAG peptides. PI3P and phosphatidylserine (C16) liposomes were generated by sonication in 2× lipid mixture buffer [40 mM Tris-HCl (pH 7.4), 200 mM NaCl, 1 mM EGTA] with or without FTY720. FLAG-PIKfyve and lipid mixtures were incubated with Mg^2+-ATP solution [6.5 mM HEPES (pH 7.3), 2.5 mM MnCl2, 10 mM MgCl2, 1 mM β-glycerophosphate, 0.1 mM ATP and [^32P]-γ-ATP] for 15 min at RT. The reaction was stopped by adding 4 M HCl, and phosphoinositides were extracted with methanol/chloroform (1:1). Phosphoinositides were spotted on silica thin-layer chromatography plates and separated with 2 M acetic acid/1-propanol (35:65). Membranes were dried, exposed to a Phospho Imager, and the counts from PI(3,5)P2 spots quantified with ImageQuant.

SMILES | sensitivity in colony formation assays [1] | sensitivity in colony formation assays (colon cancer cells SW620) | cellular oxygen consumption [2] | PIKfyve kinase activity (PIKfyve)
CCCCCCCCc1ccc([C@H]2CCN[C@@H]2CO)cc1.Cl [Compound 5, (2S,3R)-2-(hydroxymethyl)-3-(4-octylphenyl)Pyrrolidinium chloride] | resistant | highly sensitive | increasing | 
CCCCCCCCc1ccc(CCC(N)(CO)CO)cc1.Cl [FTY720, 2-Amino-2-[2-(4-octylphenyl)ethyl]propane 1,3-diol hydrochloride, reference compound] |  |  |  | did not inhibit PIKfyve kinase activity
